Where a SMILES comes first, the peptide text is derived from it. [ ]: non-standard residue; d: D form. The star is where a group is joined. Pyrazinecarbonyl = O=C(c1cnccn1)*; Hyp = O=C(O)[C@@H]1C[C@@H](O)CN1; Abu = CC[C@H](N)C(=O)O; Bn = c1ccc(C*)cc1
Key:
Huh-7 [1] = experiment: Reduction of HCV RNA in 48 hr compound treated Huh 7 cells was determined by quantitative RT-PCR-based […] assay; assay type: functional; conditions: Homo sapiens, Huh-7, 48 h
[2] = molecular target: T1, Hepatitis C virus serine protease, NS3/NS4A (Hepatitis C virus, UniProt D2K2A8+A3EZI9); experiment: Binding inhibition of hepatitis C virus NS3.4A protease 2 using a reverse phase HPLC based assay; assay type: protein-complex assay, Hepacivirus hominis
T1 sequence (D2K2A8 whole entry): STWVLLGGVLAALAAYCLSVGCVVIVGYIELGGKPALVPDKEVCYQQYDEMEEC
T1 sequence (A3EZI9 whole entry): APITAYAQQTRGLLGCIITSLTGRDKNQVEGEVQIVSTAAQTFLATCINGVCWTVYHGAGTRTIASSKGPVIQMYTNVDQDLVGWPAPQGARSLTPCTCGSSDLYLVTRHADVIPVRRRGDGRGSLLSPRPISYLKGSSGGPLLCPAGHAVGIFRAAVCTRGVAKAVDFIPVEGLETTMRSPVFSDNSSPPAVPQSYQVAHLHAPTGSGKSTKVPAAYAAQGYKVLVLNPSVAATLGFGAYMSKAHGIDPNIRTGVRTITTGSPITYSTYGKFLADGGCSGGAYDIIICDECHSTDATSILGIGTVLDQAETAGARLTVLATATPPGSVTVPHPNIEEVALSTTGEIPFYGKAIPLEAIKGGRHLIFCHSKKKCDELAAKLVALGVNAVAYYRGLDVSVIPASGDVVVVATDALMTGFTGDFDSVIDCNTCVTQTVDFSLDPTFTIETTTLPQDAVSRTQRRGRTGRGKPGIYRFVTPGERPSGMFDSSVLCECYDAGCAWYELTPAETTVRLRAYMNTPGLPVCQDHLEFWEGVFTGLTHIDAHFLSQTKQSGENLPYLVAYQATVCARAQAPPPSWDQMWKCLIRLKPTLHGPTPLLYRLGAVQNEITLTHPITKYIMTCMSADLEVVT

[3] = molecular target: T1, Hepatitis C virus serine protease, NS3/NS4A; experiment: Binding inhibition of hepatitis C virus NS3.4A protease 2 using p-nitroaniline assay (pNA); <0.2 (0.15); assay type: protein-complex assay, Hepacivirus hominis
Huh-7 [4] = experiment: Cytotoxicity of compound was determined by MTS-based cell viability assay in Huh 7 cells; assay type: functional; conditions: Homo sapiens
NS3 = NS3 (Hepatitis C virus, UniProt A3EZJ3); experiment: Binding inhibition of hepatitis C virus NS3.4A protease 2 using p-nitroaniline assay (pNA); design: species or system Hepacivirus hominis
NS3, sequence (A3EZJ3 whole entry): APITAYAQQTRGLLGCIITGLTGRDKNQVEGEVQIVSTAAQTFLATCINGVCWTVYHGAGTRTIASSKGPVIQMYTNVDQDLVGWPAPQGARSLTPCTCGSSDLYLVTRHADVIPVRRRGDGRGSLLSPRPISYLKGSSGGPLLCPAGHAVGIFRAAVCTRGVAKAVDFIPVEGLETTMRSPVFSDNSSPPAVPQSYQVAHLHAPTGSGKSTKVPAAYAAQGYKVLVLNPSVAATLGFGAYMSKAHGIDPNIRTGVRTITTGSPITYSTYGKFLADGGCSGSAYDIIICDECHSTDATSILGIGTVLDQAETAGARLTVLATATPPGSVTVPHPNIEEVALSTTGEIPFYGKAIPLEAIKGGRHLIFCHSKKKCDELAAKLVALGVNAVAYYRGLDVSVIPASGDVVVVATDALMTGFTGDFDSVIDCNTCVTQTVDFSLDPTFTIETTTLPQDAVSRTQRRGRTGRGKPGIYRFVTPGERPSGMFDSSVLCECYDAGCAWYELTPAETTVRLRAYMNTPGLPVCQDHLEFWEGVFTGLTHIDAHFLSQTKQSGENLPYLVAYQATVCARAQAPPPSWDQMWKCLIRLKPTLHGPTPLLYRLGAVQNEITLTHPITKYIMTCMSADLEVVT

[5] = molecular target: T1, Hepatitis C virus serine protease, NS3/NS4A; experiment: Binding inhibition of hepatitis C virus NS3.4A protease 2 using p-nitroaniline assay (pNA); <0.2 (0.10); assay type: protein-complex assay, Hepacivirus hominis
[6] = molecular target: T1, Hepatitis C virus serine protease, NS3/NS4A; experiment: Binding inhibition of hepatitis C virus NS3.4A protease 2 using p-nitroaniline assay (pNA); <0.2 (0.03); assay type: protein-complex assay, Hepacivirus hominis
[7] = molecular target: T1, Hepatitis C virus serine protease, NS3/NS4A; experiment: Binding inhibition of hepatitis C virus NS3.4A protease 2 using p-nitroaniline assay (pNA); <0.2 (0.18); assay type: protein-complex assay, Hepacivirus hominis
[8] = molecular target: T1, Hepatitis C virus serine protease, NS3/NS4A; experiment: Binding inhibition of hepatitis C virus NS3.4A protease 2 using a reverse phase HPLC based assay; <0.2 (0.15); assay type: protein-complex assay, Hepacivirus hominis
[9] = molecular target: T1, Hepatitis C virus serine protease, NS3/NS4A; experiment: Binding inhibition of hepatitis C virus NS3.4A protease 2 was determined; assay type: protein-complex assay, Hepacivirus hominis

SMILES	IC50 (Huh-7 [1]) [µM]	CC50 (Huh-7 [4]) [µM]	Ki (NS3) [µM]	also measured
CCCC(NC(=O)[C@@H]1C[C@@H](OC(=O)N2CCc3ccccc3C2)CN1C(=O)[C@H](NC(=O)[C@H](NC(=O)c1cnccn1)C(C)C)C(C)C)C(=O)C(=O)NCc1ccccc1 (stereo partly drawn)	> 3.2	> 30		IC50 [2]: 220 nM; Ki [3]: < 200 nM
CCCC(NC(=O)[C@@H]1CC(OC(=O)N2CCc3ccccc3C2)CN1C(=O)[C@H](NC(=O)[C@H](NC(=O)c1cnccn1)C(C)C)C(C)C)C(=O)C(=O)N1C[C@@H]1c1ccccc1 (single isomer, unassigned)			1.6	
CC[C@H](NC(=O)[C@@H]1C[C@@H](OCc2ccccc2)CN1C(=O)[C@@H](NC(=O)[C@@H](NC(=O)c1cnccn1)C(C)C)C(C)C)C(=O)C(C)=O			50	
CC[C@H](NC(=O)[C@@H]1C[C@@H](OCc2ccccc2)CN1C(=O)[C@@H](NC(=O)[C@@H](NC(=O)c1cnccn1)C(C)C)C(C)C)C(=O)C(=O)N1CCCC1			32	
CCCC(NC(=O)[C@@H]1C[C@@H](OC(=O)N2CCc3ccccc3C2)CN1C(=O)[C@H](NC(=O)[C@H](NC(=O)c1cnccn1)C(C)C)C(C)C)C(=O)C(=O)NC1CCC1 (stereo partly drawn)	> 10.2	> 100	0.8	
CCC(NC(=O)[C@@H]1C[C@@H](OCc2ccccc2)CN1C(=O)[C@H](NC(=O)[C@H](NC(=O)c1cnccn1)C(C)C)C(C)C)C(=O)C(F)(F)F (stereo partly drawn)			> 50	
CCCC(NC(=O)[C@@H]1C[C@@H](OC(=O)N2CCc3ccccc3C2)CN1C(=O)[C@H](NC(=O)[C@H](NC(=O)c1cnccn1)C(C)C)C(C)C)C(=O)C(=O)NCc1nnn[nH]1 (stereo partly drawn)	> 10	> 100	0.29	
CC[C@H](NC(=O)[C@@H]1C[C@@H](OCc2ccccc2)CN1C(=O)[C@@H](NC(=O)[C@@H](NC(=O)c1cnccn1)C(C)C)C(C)C)C(=O)C(=O)N[C@H](C)c1ccccc1			17	
CCCC(NC(=O)[C@@H]1C[C@@H](OC(=O)N2CCc3ccccc3C2)CN1C(=O)[C@H](NC(=O)[C@H](NC(=O)c1cnccn1)C(C)C)C(C)C)C(=O)C(=O)N(C)CC(=O)O (stereo partly drawn)			5.23	
CCCC(NC(=O)[C@@H]1C[C@@H](OC(=O)N2CCc3ccccc3C2)CN1C(=O)[C@H](NC(=O)[C@H](NC(=O)c1cnccn1)C(C)C)C(C)C)C(=O)C(=O)NC(C)C (stereo partly drawn)	> 10	> 100	0.52	
CC[C@H](NC(=O)[C@@H]1C[C@@H](OCc2ccccc2)CN1C(=O)[C@@H](NC(=O)[C@@H](NC(=O)c1cnccn1)C(C)C)C(C)C)C(=O)O (Pyrazinecarbonyl-VV[Hyp](Bn)[Abu]-OH)			> 50	
CC[C@@H](C=O)NC(=O)[C@@H]1C[C@@H](OCc2ccccc2)CN1C(=O)[C@@H](NC(=O)[C@@H](NC(=O)c1cnccn1)C(C)C)C(C)C (Pyrazinecarbonyl-VV[Hyp](Bn)[Abu]-aldehyde)			16	
CCC(NC(=O)[C@@H]1C[C@@H](OCc2ccccc2)CN1C(=O)[C@H](NC(=O)[C@H](NC(=O)c1cnccn1)C(C)C)C(C)C)C(=O)CCl (stereo partly drawn)			> 50	
CCCC(NC(=O)[C@@H]1C[C@@H](OC(=O)N2CCc3ccccc3C2)CN1C(=O)[C@H](NC(=O)[C@H](NC(=O)c1cnccn1)C(C)C)C(C)C)C(=O)C(=O)NC1CC1 (stereo partly drawn)	> 2.3	> 100		IC50 [2]: 420 nM; Ki [3]: < 220 nM
CC[C@H](NC(=O)[C@@H]1C[C@@H](OCc2ccccc2)CN1C(=O)[C@@H](NC(=O)[C@@H](NC(=O)c1cnccn1)C(C)C)C(C)C)C(=O)C(=O)C(C)C			2.7	
CCCC(NC(=O)[C@@H]1C[C@@H](OC(=O)N2CCc3ccccc3C2)CN1C(=O)[C@H](NC(=O)[C@H](NC(=O)c1cnccn1)C(C)C)C(C)C)C(=O)C(=O)NC(C)(C)C (stereo partly drawn)			6.9	
CCCC(NC(=O)[C@@H]1C[C@@H](OC(=O)N2CCc3ccccc3C2)CN1C(=O)[C@H](NC(=O)[C@H](NC(=O)c1cnccn1)C(C)C)C(C)C)C(=O)C(=O)N[C@@H](C)c1ccccc1 (stereo partly drawn)	> 0.31	> 16		IC50 [2]: 220 nM; Ki [5]: < 200 nM
CCCC(NC(=O)[C@@H]1C[C@@H](OC(=O)N2CCc3ccccc3C2)CN1C(=O)[C@H](NC(=O)[C@H](NC(=O)c1cnccn1)C(C)C)C(C)C)C(=O)C(=O)NCc1ccco1 (stereo partly drawn)			4.72	
CC[C@H](NC(=O)[C@@H]1C[C@@H](OCc2ccccc2)CN1C(=O)[C@@H](NC(=O)[C@@H](NC(=O)c1cnccn1)C(C)C)C(C)C)C(=O)C(=O)N[C@@H](C)c1ccccc1 [listing 1 of 2 here]		> 100		

SMILES	IC50 (Huh-7 [1]) [µM]	CC50 (Huh-7 [4]) [µM]	Ki (NS3) [µM]	also measured
CCOC(=O)C(F)(F)C(=O)C(CC)NC(=O)C1CC(OCc2ccccc2)CN1C(=O)[C@H](NC(=O)[C@H](NC(=O)c1cnccn1)C(C)C)C(C)C (single isomer, unassigned)			> 50	
CCCC(NC(=O)[C@@H]1CC(OC(=O)N2CCc3ccccc3C2)CN1C(=O)[C@H](NC(=O)[C@H](NC(=O)c1cnccn1)C(C)C)C(C)C)C(=O)C(=O)c1ccccc1 (single isomer, unassigned)	> 10	> 100		IC50 [2]: 26 nM; Ki [6]: < 200 nM
CCCC(NC(=O)[C@@H]1C[C@@H](OC(=O)N2CCc3ccccc3C2)CN1C(=O)[C@H](NC(=O)[C@H](NC(=O)c1cnccn1)C(C)C)C(C)C)C(=O)C(=O)N(CC(=O)O)c1ccccc1 (stereo partly drawn)			1.63	
CCCC(NC(=O)[C@@H]1C[C@@H](OC(=O)N2CCc3ccccc3C2)CN1C(=O)[C@H](NC(=O)[C@H](NC(=O)c1cnccn1)C(C)C)C(C)C)C(=O)C(=O)NCC#N (stereo partly drawn)			1.12	
CCCC(NC(=O)[C@@H]1C[C@@H](OC(=O)N2CCc3ccccc3C2)CN1C(=O)[C@H](NC(=O)[C@H](NC(=O)c1cnccn1)C(C)C)C(C)C)C(=O)C(=O)N[C@@H](C)C(=O)c1cccc2ccccc12 (stereo partly drawn)				IC50 [2]: 750 nM; Ki [7]: < 200 nM
CCCC(NC(=O)[C@@H]1C[C@@H](OC(=O)N2CCc3ccccc3C2)CN1C(=O)[C@H](NC(=O)[C@H](NC(=O)c1cnccn1)C(C)C)C(C)C)C(=O)C(=O)NCC(=O)O (stereo partly drawn)	> 10	> 100		Ki [3]: < 200 nM; IC50 [8]: 37 nM
CC[C@H](NC(=O)[C@@H]1C[C@@H](OCc2ccccc2)CN1C(=O)[C@@H](NC(=O)[C@@H](NC(=O)c1cnccn1)C(C)C)C(C)C)C(=O)C(=O)NCc1ccccc1			4	
CCCC(NC(=O)[C@@H]1C[C@@H](OC(=O)N2CCc3ccccc3C2)CN1C(=O)[C@H](NC(=O)[C@H](NC(=O)c1cnccn1)C(C)C)C(C)C)C(=O)C(=O)NCCc1ccccc1 (stereo partly drawn)	> 10	> 100	0.21	IC50 [2]: 520 nM
CC[C@H](NC(=O)[C@@H]1C[C@@H](OCc2ccccc2)CN1C(=O)[C@@H](NC(=O)[C@@H](NC(=O)c1cnccn1)C(C)C)C(C)C)C(=O)C(=O)c1ccccc1			10	
CC[C@H](NC(=O)[C@@H]1C[C@@H](OCc2ccccc2)CN1C(=O)[C@@H](NC(=O)[C@@H](NC(=O)c1cnccn1)C(C)C)C(C)C)C(=O)C(=O)N[C@@H](C)c1ccccc1 [listing 2 of 2 here]	> 4.8		0.92	
CCCC(NC(=O)[C@@H]1C[C@@H](OC(=O)N2CCc3ccccc3C2)CN1C(=O)[C@H](NC(=O)[C@H](NC(=O)c1cnccn1)C(C)C)C(C)C)C(=O)C(=O)NC(CO)C(=O)O (stereo partly drawn)			0.54	
CC[C@H](NC(=O)[C@@H]1C[C@@H](OCc2ccccc2)CN1C(=O)[C@@H](NC(=O)[C@@H](NC(=O)c1cnccn1)C(C)C)C(C)C)C(=O)c1nnc(-c2ccccc2)o1			35	
CCCC(NC(=O)[C@@H]1CC(OC(=O)N2CCc3ccccc3C2)CN1C(=O)[C@H](NC(=O)[C@H](NC(=O)c1cnccn1)C(C)C)C(C)C)C(=O)C(=O)N1CCC1 (single isomer, unassigned)	> 10.3	> 100	0.97	
CCCC(NC(=O)[C@@H]1C[C@@H](OC(=O)N2CCc3ccccc3C2)CN1C(=O)[C@H](NC(=O)[C@H](NC(=O)c1cnccn1)C(C)C)C(C)C)C(=O)C(=O)NCC(=N)N (stereo partly drawn)			5.76	
CCCC(NC(=O)[C@@H]1C[C@@H](OC(=O)N2CCc3ccccc3C2)CN1C(=O)[C@H](NC(=O)[C@H](NC(=O)c1cnccn1)C(C)C)C(C)C)C(=O)C(=O)NC(C)C(=O)O (stereo partly drawn)				IC50 [2]: 130 nM; Ki [7]: 200 nM
CC[C@@H](C=O)NC(=O)[C@@H]1CC(OC(=O)C2CCc3ccccc3C2)CN1C(=O)[C@@H](NC(=O)[C@@H](NC(=O)c1cnccn1)C(C)C)C(C)C (stereo partly drawn)				Ki [9]: 890 nM
CCCC(NC(=O)[C@@H]1CC(OC(=O)N2CCc3ccccc3C2)CN1C(=O)[C@H](NC(=O)[C@H](NC(=O)c1cnccn1)C(C)C)C(C)C)C(=O)C(=O)Cc1ccccc1 (single isomer, unassigned)	> 10	> 100	0.43	
CCC(NC(=O)[C@@H]1C[C@@H](OCc2ccccc2)CN1C(=O)[C@H](NC(=O)[C@H](NC(=O)c1cnccn1)C(C)C)C(C)C)C(=O)C(F)(F)C(F)(F)F (stereo partly drawn)			17.5	
